From patent US20260078103A1, “ISOQUINOLONES AS PI3K INHIBITORS” (OnKure, Inc., priority 2022, published 2026) come the findings set out here.

Where two headings read alike, the source gives them in different places.

Holding throughout (format): cell-based
Assay [1] deals with phosphorylation of AKT (pAKT) in T47D cells expressing mutant PI3Ka (H1047R). Nature of the assay: In vitro cell pAKT (Ser473) HTRF, T47D cells. The settings on record: cellular pAKT, T47D cells, mutant PI3Ka (H1047R), 6 hours, read-out: Avg T-47D IC50. The method in brief:
(§1)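 pAKT (Ser473) was quantified by HTRF in lysates from cells exposed 6 h at 37 °C to 10-point compound series, with T47D in insulin-supplemented RPMI/10% FBS and SKBR3 in McCoy's 5a/10% FBS. Controls: 0.1% DMSO (high) and 10 uM alpelisib (low). IC50 from sigmoidal curve fitting.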
(In general: In TR-FRET formats the signal depends on donor and acceptor labels being close together.)

For assay [2], the system named is T47D cells expressing mutant PI3Ka (H1047R). In words: In vitro cell proliferation, T47D cells (CellTiter-Glo). The settings on record: inhibition of proliferation, read-out: Avg T-47D EC50. The method in brief:
(§2)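 T47D (PI3Kα H1047R; RPMI, 10% FBS, insulin 0.2 units/mL) or SKBR3 (WT PI3Kα; McCoys 5a, 10% FBS) cells seeded at 1,500 cells/well on 10-point compound dilutions, grown 72 h at 37 °C. CellTiter-Glo luminescence; inhibition normalised to 0.1% DMSO and 10 uM alpelisib, EC50 from four-parameter fit.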
Background: In ATP-based viability assays light output follows the ATP content of the culture.

In assay [3] the test system is SKBR3 cells express WT PI3Ka. Nature of the assay: In vitro cell proliferation, SKBR3 cells (CellTiter-Glo). Particulars: inhibition of proliferation. Summed up:
as §2

The test system of assay [4] is phosphorylation of AKT (pAKT) in SKBR3 cells express WT PI3Ka. Nature of the assay: In vitro cell pAKT (Ser473) HTRF, SKBR3 cells. Particulars: cellular pAKT. Summed up: as §1

For orientation: IC50 means the point on the concentration scale where inhibition reaches its midpoint. For orientation: EC50 means the concentration giving half of the maximal effect. Turning to `Cc1cc([C@@H](C)Nc2ccccc2C(=O)O)c2cc(-c3ccc(OCC4CC4)nc3)n(C)c(=O)c2c1` [Example 208], the IC50 in assay [1] (Homo sapiens, T47D, 6 h) is 1 to 500 nM; in assay [4] (Homo sapiens, SK-BR-3, 6 h), over 15000 nM. Moreover, the EC50 is 1 to 500 nM in assay [2] (Homo sapiens, T47D, 72 h) and over 15000 nM in assay [3] (Homo sapiens, SK-BR-3, 72 h).
As for `Cc1cc([C@@H](C)Nc2ccccc2C(=O)O)c2cc(-c3ccc(C)nc3C)n(C)c(=O)c2c1` [Example 209], the IC50 is 1 to 500 nM in assay [1] (Homo sapiens, T47D, 6 h) and over 15000 nM in assay [4] (Homo sapiens, SK-BR-3, 6 h). For the same compound, the concentration giving a half-maximal response (EC50) in assay [2] (Homo sapiens, T47D, 72 h) was 500 to 2000 nM; in assay [3] (Homo sapiens, SK-BR-3, 72 h) it was over 15000 nM.
As for `Cc1cc([C@@H](C)Nc2ccccc2C(=O)O)c2cc(-c3cnc(C)c(C)c3)n(C)c(=O)c2c1` [Example 210], the IC50 in assay [1] (Homo sapiens, T47D, 6 h) was 1 to 500 nM; in assay [4] (Homo sapiens, SK-BR-3, 6 h), over 15000 nM. For the same compound, the EC50 in assay [2] (Homo sapiens, T47D, 72 h) is 500 to 2000 nM; in assay [3] (Homo sapiens, SK-BR-3, 72 h), over 15000 nM.
On to `Cc1cc([C@@H](C)Nc2ccccc2C(=O)O)c2cc(-c3cnn(C4CC4)c3)n(C)c(=O)c2c1` [Example 212], for which the half-inhibitory concentration (IC50) in assay [1] (Homo sapiens, T47D, 6 h) is 500 to 2000 nM; in assay [4] (Homo sapiens, SK-BR-3, 6 h) it was over 15000 nM. In addition, the half-maximal effective concentration (EC50) was 500 to 2000 nM in assay [2] (Homo sapiens, T47D, 72 h) and over 15000 nM in assay [3] (Homo sapiens, SK-BR-3, 72 h).
Take `Cc1cc([C@@H](C)Nc2ccccc2C(=O)O)c2cc(N3CCN(Cc4ccnc(C)n4)CC3)n(C)c(=O)c2c1` [Example 214]: the half-inhibitory concentration (IC50) is 1 to 500 nM in assay [1] (Homo sapiens, T47D, 6 h) and over 15000 nM in assay [4] (Homo sapiens, SK-BR-3, 6 h). Moreover, the EC50 in assay [2] (Homo sapiens, T47D, 72 h) was 1 to 500 nM; in assay [3] (Homo sapiens, SK-BR-3, 72 h) it was over 15000 nM.
In the case of `Cc1cc([C@@H](C)Nc2ccccc2C(=O)O)c2cc(-c3ccc(OC4CC4)nc3)n(C)c(=O)c2c1` [Example 216], the 50% inhibitory concentration (IC50) was 1 to 500 nM in assay [1] (Homo sapiens, T47D, 6 h) and over 15000 nM in assay [4] (Homo sapiens, SK-BR-3, 6 h). Moreover, the 50% effective concentration (EC50) is 1 to 500 nM in assay [2] (Homo sapiens, T47D, 72 h) and over 15000 nM in assay [3] (Homo sapiens, SK-BR-3, 72 h).
On to `Cc1cc(C(C)Nc2ccccc2C(=O)O)c2cc(-c3ccc(OC4CC(F)C4)nc3)n(C)c(=O)c2c1` (stereo not shown) [Example 217], for which the 50% inhibitory concentration (IC50) in assay [1] was 1 to 500 nM; in assay [4] (6 hours), over 15000 nM. Besides, the EC50 lay within 1 to 500 nM in assay [2] (72 hours) and 2000 to 15000 nM in assay [3] (72 hours).
Take `COc1ccc(N2CCN(c3cc4c([C@@H](C)Nc5ccccc5C(=O)O)cc(C)cc4c(=O)n3C)CC2)cn1` [Example 218]: the half-inhibitory concentration (IC50) in assay [1] (Homo sapiens, T47D, 6 h) lay in the range of 1 to 500 nM; in assay [4] (Homo sapiens, SK-BR-3, 6 h), 2000 to 15000 nM. For the same compound, the EC50 in assay [2] (Homo sapiens, T47D, 72 h) is 1 to 500 nM; in assay [3] (Homo sapiens, SK-BR-3, 72 h) it was 2000 to 15000 nM.
With `Cc1cc([C@@H](C)Nc2ccccc2C(=O)O)c2cc(N3CCC4(CC3)CN(CC(F)(F)F)C4)n(C)c(=O)c2c1` [Example 219], the results for the IC50 in assay [1] and in assay [4] (6 hours) were 1 to 500 nM and 2000 to 15000 nM, respectively. The EC50 was 1 to 500 nM in assay [2] (72 hours) and 2000 to 15000 nM in assay [3] (72 hours).
In the case of `Cc1cc([C@@H](C)Nc2ccccc2C(=O)O)c2cc(N3CCN(c4cnn(C)c4)CC3)n(C)c(=O)c2c1` [Example 220], the IC50 fell in the range of 1 to 500 nM in assay [1] (Homo sapiens, T47D, 6 h) and 2000 to 15000 nM in assay [4] (Homo sapiens, SK-BR-3, 6 h). Further, the EC50 was 1 to 500 nM in assay [2] (Homo sapiens, T47D, 72 h) and over 15000 nM in assay [3] (Homo sapiens, SK-BR-3, 72 h).
In the case of `Cc1cc([C@@H](C)Nc2ccccc2C(=O)O)c2cc(N3CCN(c4ccccc4F)CC3)n(C)c(=O)c2c1` [Example 221], the IC50 in assay [1] (Homo sapiens, T47D, 6 h) lay in the range of 1 to 500 nM; in assay [4] (Homo sapiens, SK-BR-3, 6 h) it was 2000 to 15000 nM. Further, the half-maximal effective concentration (EC50) is 1 to 500 nM in assay [2] (Homo sapiens, T47D, 72 h) and over 15000 nM in assay [3] (Homo sapiens, SK-BR-3, 72 h).
In the case of `Cc1cc([C@@H](C)Nc2ccccc2C(=O)O)c2cc(NCc3ccc(F)cc3)n(C)c(=O)c2c1` [Example 222], the IC50 in assay [1] (Homo sapiens, T47D, 6 h) is 2000 to 15000 nM; in assay [4] (Homo sapiens, SK-BR-3, 6 h), over 15000 nM. Also, the 50% effective concentration (EC50) in assay [2] (Homo sapiens, T47D, 72 h) was 2000 to 15000 nM; in assay [3] (Homo sapiens, SK-BR-3, 72 h), over 15000 nM.
With `Cc1cc([C@@H](C)Nc2ccccc2C(=O)O)c2cc(-c3cnc(C)cc3C)n(C)c(=O)c2c1` [Example 223], the IC50 in assay [1] (Homo sapiens, T47D, 6 h) was 1 to 500 nM; in assay [4] (Homo sapiens, SK-BR-3, 6 h) it was over 15000 nM. Moreover, the EC50 is 500 to 2000 nM in assay [2] (Homo sapiens, T47D, 72 h) and over 15000 nM in assay [3] (Homo sapiens, SK-BR-3, 72 h).
In the case of `Cc1cc([C@@H](C)Nc2ccccc2C(=O)O)c2cc(-c3ccc(C(C)(C)F)nc3)n(C)c(=O)c2c1` [Example 225], the IC50 is 1 to 500 nM in assay [1] (Homo sapiens, T47D, 6 h) and over 15000 nM in assay [4] (Homo sapiens, SK-BR-3, 6 h). The 50% effective concentration (EC50) in assay [2] (Homo sapiens, T47D, 72 h) was 1 to 500 nM; in assay [3] (Homo sapiens, SK-BR-3, 72 h), over 15000 nM.
Consider `Cc1cc([C@@H](C)Nc2ccccc2C(=O)O)c2cc(-c3ccc(C(C)C)nc3)n(C)c(=O)c2c1` [Example 226], for which the IC50 was 1 to 500 nM in assay [1] (Homo sapiens, T47D, 6 h) and over 15000 nM in assay [4] (Homo sapiens, SK-BR-3, 6 h). Further, the concentration giving a half-maximal response (EC50) in assay [2] (Homo sapiens, T47D, 72 h) was 1 to 500 nM; in assay [3] (Homo sapiens, SK-BR-3, 72 h) it was over 15000 nM.
Turning to `Cc1cc([C@@H](C)Nc2ccccc2C(=O)O)c2cc(-c3ccc(C4CC4)nc3)n(C)c(=O)c2c1` [Example 227], the IC50 was 1 to 500 nM in assay [1] (Homo sapiens, T47D, 6 h) and over 15000 nM in assay [4] (Homo sapiens, SK-BR-3, 6 h). Moreover, the concentration for a half-maximal effect (EC50) in assay [2] (Homo sapiens, T47D, 72 h) is 1 to 500 nM; in assay [3] (Homo sapiens, SK-BR-3, 72 h), over 15000 nM.
